What was measured:
human PDE5 = molecular target: T1, human PDE5 (Homo sapiens, UniProt O76074); test: Inhibition of PDE5 activity (modified SPA test, human platelet lysate); assay type: biochemical; conditions: PDE5-containing human platelet lysate, 0.5 μM cGMP substrate, 37° C.
T1 construct: from tissue; host or cells: human platelets from fresh donor blood (10,000 g supernatant of sonified platelets)
Procedure: As a source for human PDE5, platelets were used. For that purpose, 150 ml fresh blood from human donors anticoagulated with citrate [final concentration 0.3% (w/v)] was centrifuged at 200 g for 10 min to obtain the so-called platelet-rich-plasma (PRP) as a supernatant. 1/10 volume of ACD solution (85 mM Na3-citrate, 111 mM D-glucose, 71 mM citric acid, pH 4.4) was added to 9/10 volume of PRP. After centrifugation (1,400 g, 10 min) the cell pellet was resuspended in 3 ml homogenization buffer (NaCl 140 mM, KCl 3.8 mM, EGTA 1 mM, MgCl2 1 mM, Tris-HCl 20 mM, beta-mercaptoethanol 1 mM, pH 8.2) plus protease-inhibitor mix giving rise to the final concentrations of 0.5 mM Pefablock (Roche), 10 μM Leupeptin, 5 μM Trypsininhibitor, 2 mM Benzamidin and 10 μM Pepstatin A. The suspension was sonified and thereafter centrifuged for 15 min at 10,000 g. The resulting supernatant (platelet lysate) was used for enzymatic testings.
PDE5A1 activity is inhibited by the compounds of the invention in a modified SPA (scintillation proximity assay) test, supplied by Amersham Biosciences (see procedural instructions “phosphodiesterase [3H]cAMP SPA enzyme assay, code TRKQ 7090”), carried out in 96-well microtitre plates (MTP's). The test volume is 100 μl and contains 20 mM Tris buffer (pH 7.4), 0.1 mg of BSA (bovine serum albumin)/ml, 5 mM Mg^2+, 1 μM motapizone, 10 nM PDE2 inhibitor BAY-60-7550, 0.5 μM cGMP (including about 50,000 cpm of [3H]cGMP as a tracer), 1 μl of the respective compound dilution in dimethylsulfoxide (DMSO) and sufficient PDE5-containing platelet lysat (10,000×g supernatant, see above) to ensure that 10-20 wt % of the cGMP is converted under the said experimental conditions. […] After a preincubation of 5 min at 37° C., the reaction was started by adding the substrate (cGMP) and the assay was incubated for a further 15 min; after that, it was stopped by adding SPA beads (50 μl). In accordance with the manufacturer's instructions, the SPA beads had previously been resuspended in water, but were then diluted 1:3 (v/v) in water; the diluted solution also contains 3 mM 8-methoxymethyl-3-isobutyl-1-methylxanthine (IBMX) to ensure a complete PDE activity stop. After the beads have been sedimented (>30 min), the MTP's are analyzed in commercially available luminescence detection devices. The corresponding IC50 values of the compounds for the inhibition of PDE activity are determined from the concentration-effect curves by means of non-linear regression.

Compound	melting point	IC50 (human PDE5)
COc1ccc(Cc2nc3c(c4c2[nH]c2ccccc24)CCC(C)C3)cc1 (centres unmarked) [Example 4, 6-(4-Methoxy-benzyl)-3-methyl-2,3,4,7-tetrahydro-1H-indolo[2,3-c]quinoline]	186 °C	3.39 nM
CC1(C)CC(=O)c2c(nc(Cc3ccc(OC(F)(F)F)cc3)c3[nH]c4ccccc4c23)C1 [Example 11, 3,3-Dimethyl-6-(4-trifluoromethoxy-benzyl)-2,3,4,7-tetrahydro-indolo[2,3-c]quinolin-1-one]	141 to 143 °C	135 nM
CCOc1ccc(Cc2nc3c(c4c2[nH]c2ccccc24)C(=O)CC(C)(C)C3)cc1 [Example 12, 6-(4-Ethoxy-benzyl)-3,3-dimethyl-2,3,4,7-tetrahydro-indolo[2,3-c]quinolin-1-one]	179 to 181 °C	26.9 nM
CC(C)c1ccc(Cc2nc3c(c4c2[nH]c2ccccc24)C(=O)CC(C)(C)C3)cc1 [Example 14, 6-(4-Isopropyl-benzyl)-3,3-dimethyl-2,3,4,7-tetrahydro-indolo[2,3-c]quinolin-1-one]	153 to 155 °C	347 nM
COc1ccc(Cc2nc3c(c4c2[nH]c2ccccc24)C(=O)CC(C)C3)cc1 (centres unmarked) [Example 17, 6-(4-Methoxy-benzyl)-3-methyl-2,3,4,7-tetrahydro-indolo[2,3-c]quinolin-1-one]	102 °C	3.16 nM
O=C1CCCc2nc(Cc3ccc4c(c3)OCO4)c3[nH]c4ccccc4c3c21 [Example 18, 6-Benzo[1,3]dioxol-5-ylmethyl-2,3,4,7-tetrahydro-indolo[2,3-c]quinolin-1-one]	194 to 197 °C	3.63 nM
Cc1ccc(Cc2nc3c(c4c2[nH]c2ccccc24)C(=O)CC(C)(C)C3)cc1 [Example 25, 3,3-Dimethyl-6-(4-methyl-benzyl)-2,3,4,7-tetrahydro-indolo[2,3-c]quinolin-1-one]	182 to 184 °C	2.95 nM
O=C1CCCc2nc(Cc3ccc([N+](=O)[O-])cc3)c3[nH]c4ccccc4c3c21 [Example 26, 6-(4-Nitro-benzyl)-2,3,4,7-tetrahydro-indolo[2,3-c]quinolin-1-one]	138 to 140 °C	355 nM
COc1ccc(Cc2nc3c(c4c2[nH]c2ccccc24)C(=O)CC(C)(C)C3)c(F)c1 [Example 27, 6-(2-Fluoro-4-methoxy-benzyl)-3,3-dimethyl-2,3,4,7-tetrahydro-indolo[2,3-c]quinolin-1-one]	138 to 140 °C	2.24 nM
COc1ccc(Cc2nc3c(c4c2[nH]c2ccccc24)C(=O)CCC3)cc1F [Example 29, 6-(3-Fluoro-4-methoxy-benzyl)-2,3,4,7-tetrahydro-indolo[2,3-c]quinolin-1-one]	228 to 230 °C	1.26 nM
COc1ccc(Cc2nc3c(c4c2[nH]c2ccccc24)CCCC3)cc1F [Example 30, 6-(3-Fluoro-4-methoxy-benzyl)-2,3,4,7-tetrahydro-1H-indolo[2,3-c]quinoline]	118 to 120 °C	3.98 nM
COc1ccc(Cc2nc3c(c4c2[nH]c2ccccc24)C(=O)CC(C)(C)C3)c(F)c1F [Example 31, 6-(2,3-Difluoro-4-methoxy-benzyl)-3,3-dimethyl-2,3,4,7-tetrahydro-indolo[2,3-c]quinolin-1-one]	199 to 200 °C	0.398 nM
CC1(C)CC(=O)c2c(nc(Cc3ccc4c(c3)OCO4)c3[nH]c4ccccc4c23)C1 [Example 37, 6-Benzo[1,3]dioxol-5-ylmethyl-3,3-dimethyl-2,3,4,7-tetrahydro-indolo[2,3-c]quinolin-1-one]	193 to 196 °C (dec.)	4.9 nM
CC1(C)CC(=O)c2c(nc(Cc3ccc(N)cc3)c3[nH]c4ccccc4c23)C1 [Example 40, 6-(4-Amino-benzyl)-3,3-dimethyl-2,3,4,7-tetrahydro-indolo[2,3-c]quinolin-1-one]	123 to 124 °C	11.7 nM
CC(=O)Nc1ccc(Cc2nc3c(c4c2[nH]c2ccccc24)C(=O)CC(C)(C)C3)cc1 [Example 44, N-[4-(3,3-Dimethyl-1-oxo-2,3,4,7-tetrahydro-1H-indolo[2,3-c]quinolin-6-ylmethyl)-phenyl]-acetamide]	153 to 154 °C	16.6 nM

Now from value to compound:

melting point	IC50 (human PDE5)	Compound
209 to 211 °C	6.31 nM	COc1ccc(Cc2nc3c(c4c2[nH]c2ccccc24)C(=O)CC(C)(C)C3)cc1Cl [Example 15, 6-(3-Chloro-4-methoxy-benzyl)-3,3-dimethyl-2,3,4,7-tetrahydro-indolo[2,3-c]quinolin-1-one]
205 to 207 °C	10.2 nM	CC1(C)CC(=O)c2c(nc(Cc3ccc(Cl)cc3)c3[nH]c4ccccc4c23)C1 [Example 20, 6-(4-Chloro-benzyl)-3,3-dimethyl-2,3,4,7-tetrahydro-indolo[2,3-c]quinolin-1-one]
215 to 219 °C	126 nM	CC1(C)CC(=O)c2c(nc(Cc3cccc(Br)c3)c3[nH]c4ccccc4c23)C1 [Example 21, 6-(3-Bromo-benzyl)-3,3-dimethyl-2,3,4,7-tetrahydro-indolo[2,3-c]quinolin-1-one]
204 to 208 °C	15.5 nM	CC1(C)CC(=O)c2c(nc(Cc3cc(F)cc(F)c3)c3[nH]c4ccccc4c23)C1 [Example 22, 6-(3,5-Difluoro-benzyl)-3,3-dimethyl-2,3,4,7-tetrahydro-indolo[2,3-c]quinolin-1-one]
192 to 195 °C	1.26 nM	COc1ccc(Cc2nc3c(c4c2[nH]c2ccccc24)C(=O)CC(C)(C)C3)cc1F [Example 23, 6-(3-Fluoro-4-methoxy-benzyl)-3,3-dimethyl-2,3,4,7-tetrahydro-indolo[2,3-c]quinolin-1-one]
204 to 207 °C	14.1 nM	CC1(C)CC(=O)c2c(nc(Cc3ccc(F)c(F)c3)c3[nH]c4ccccc4c23)C1 [Example 24, 6-(3,4-Difluoro-benzyl)-3,3-dimethyl-2,3,4,7-tetrahydro-indolo[2,3-c]quinolin-1-one]
200 to 204 °C	18.2 nM	CC1(C)CC(=O)c2c(nc(Cc3ccc(F)cc3)c3[nH]c4ccccc4c23)C1 [Example 28, 6-(4-Fluoro-benzyl)-3,3-dimethyl-2,3,4,7-tetrahydro-indolo[2,3-c]quinolin-1-one]
195 to 196 °C	0.191 nM	COc1c(F)cc(Cc2nc3c(c4c2[nH]c2ccccc24)C(=O)CC(C)(C)C3)cc1F [Example 32, 6-(3,5-Difluoro-4-methoxy-benzyl)-3,3-dimethyl-2,3,4,7-tetrahydro-indolo[2,3-c]quinolin-1-one]
184 to 192 °C (dec.)	4.9 nM	CC1(C)CC(=O)c2c(nc(Cc3cccc(F)c3)c3[nH]c4ccccc4c23)C1 [Example 34, 6-(3-Fluoro-benzyl)-3,3-dimethyl-2,3,4,7-tetrahydro-indolo[2,3-c]quinolin-1-one]
206 to 209 °C	37.2 nM	CC1(C)CC(=O)c2c(nc(Cc3cccc(Cl)c3)c3[nH]c4ccccc4c23)C1 [Example 35, 6-(3-Chloro-benzyl)-3,3-dimethyl-2,3,4,7-tetrahydro-indolo[2,3-c]quinolin-1-one]
219 to 221 °C	234 nM	CC1(C)CC(=O)c2c(nc(Cc3cc(F)cc(Cl)c3)c3[nH]c4ccccc4c23)C1 [Example 36, 6-(3-Chloro-5-fluoro-benzyl)-3,3-dimethyl-2,3,4,7-tetrahydro-indolo[2,3-c]quinolin-1-one]
216 to 218 °C	0.631 nM	CC1(C)CC(=O)c2c(nc(Cc3ccc(O)c(F)c3)c3[nH]c4ccccc4c23)C1 [Example 38, 6-(3-Fluoro-4-hydroxy-benzyl)-3,3-dimethyl-2,3,4,7-tetrahydro-indolo[2,3-c]quinolin-1-one]
232 to 234 °C	5.13 nM	CC1(C)CC(=O)c2c(nc(Cc3cccc(N)c3)c3[nH]c4ccccc4c23)C1 [Example 41, 6-(3-Amino-benzyl)-3,3-dimethyl-2,3,4,7-tetrahydro-indolo[2,3-c]quinolin-1-one]

— patent US20100120730A1, “6-BENZYL-2,3,4,7-TETRAHYDRO-INDOLO [2,3-C] QUINOLINE COMPOUNDS USEFUL AS PDE5 INHIBITORS” (NYCOMED GmbH, priority 2007, published 2010)
